Experiment: Dynamic Vapor Sorption/Desorption (DVS)
Assay type: physicochemical
Details: 5% to 95% relative humidity at 10% RH intervals, nitrogen purge
Method: Moisture sorption/desorption data were collected on a VTI SGA-100 Vapor Sorption Analyzer. Sorption and desorption data were collected over a range of 5% to 95% relative humidity (RH) at 10% RH intervals under a nitrogen purge. Samples were not dried prior to analysis. Equilibrium criteria used for analysis were less than 0.0100% weight change in 5 minutes, with a maximum equilibration time of 3 hours if the weight criterion was not met. Data were not corrected for the initial moisture content of the samples. Sodium chloride and polyvinypyrrolidine were used as calibration standards.

For `COc1cc(F)c(F)c(Nc2ccc(I)cc2F)c1NS(=O)(=O)C1(C[C@H](O)CO)CC1` [Form A], the “weight change during moisture sorption/desorption” value was “negligible weight change”.

— US9174933B2
